Laboratory results taken from patent US6258806A, “Amine derivatives of oxo- and hydroxy- substituted hydrocarbons” (Narhex Limited, priority 1992, dated 2001).

Columns and labels:
HIV-1 protease = HIV-1 protease (Human immunodeficiency virus type 1 group M subtype B, UniProt P04585); experiment: HIV-1 protease-inhibiting activity; type: biochemical; details: half-maximal inhibition of HIV-1 protease
Excerpt: The HIV protease-inhibiting activity of representative compounds of the present invention has been tested by known methods (Brinkworth, R. I., et al., Biochem. Biophys. Res. Commun. 176, 241, (1991); McLeod, D. A., et al., Bioorganic & Medicinal Chemistry Letters (1991) 653-658).

[1] = test system: Human Immunodeficiency Virus type 1 (HIV) strain #237228 in MT2 cells; experiment: Anti-HIV-1 antiviral activity in acutely infected MT2 cells (CPE and RT activity); type: cell-based; details: for IC100: Human immunodeficiency virus 1, 144 h, acute HIV-1 infection, day 6, concentration at which virus replication is inhibited (CPE negative or ±, >95% inhibition of RT activity); for antiviral index (Al), MT2 cells: only non-toxic concentrations used, 8640 min; for IC80: Human immunodeficiency virus 1, printed in the IC100 column with footnote (b) IC80
Excerpt: (§1) The antiviral activity of representative compounds of the present invention has been determined at the Antivirals Laboratory, Fairfield Hospital, Fairfield, Victoria, Australia. In this test a stock solution of each compound was made in DMSO, then diluted in culture medium (RF 10) to 2× the final concentration required for test. The final concentration of DMSO was 1% or below. Approximately 250,000 continuous lymphocytes of human origin (MT2 cells) or 750,000 human peripheral blood lymphocytes (PBLs) were exposed to dilutions of each test compound, then immediately infected with Human Immunodeficiency Virus type 1 (HIV) strain #237228 (a clinical isolate obtained from a human source). The infectivity titers were expressed as tissue culture 50% infective dose (TCID50 per ml) with 1 TCID50 corresponding to the amount of supernatant required to infect 50% of the replicate cell cultures. The 250 and 200 TCID50 were used for MT2 and PBL cells respectively. The cell/drug/virus mixture was then incubated at 37° C./CO2 in a 24-well microtitre plate. Fresh amounts of the appropriate dilution of each drug were added to both MT2 and PBL cultures at day 3. At day 6, the extent of HIV-specific cytopathic effects (CPE) associated with each concentration of test compound in each of the cultures was rated according to the following scale:
(§2) 4+: 75-100% of cells showing 3+: good CPE
(§3) 3+: 50-75% of cells showing 2+: moderate CPE
(§4) 2+: 25-50% of cells showing 1+: low CPE
(§5) 1+: 5-25% of cells showing trace: minimal CPE
(§6) +/-: less than 5% CPE Negative: no CPE
(§7) The activity of the compounds at each concentration was also assessed by their ability to inhibit viron-associated reverse transcriptase (RT) activity in the culture supernates. At the time of rating of CPE, supernatant fluids from each well were removed and RT activity measured using a standard assay. CPE ratings of negative, ± (in MT2 cells) or trace (in PBLs), with greater than 95% inhibition of RT activity, was considered to represent IC100 (the concentration of compound at which the virus replication is inhibited). Control cultures included in each test were:
(§8) (a) HIV-infected cells in the absence of test compound.
(§9) (b) Uninfected cells in the absence of tested compound.
(§10) (c) Cell toxicity control consisting of uninfected cells treated with dilutions of test compound.
(§11) At the conclusion of each experiment, viable cells in these cultures, as determined by tryptan blue exclusion, were compared with the counts obtained in (b), above.

[2] = test system: Human Immunodeficiency Virus type 1 (HIV) strain #237228 in human peripheral blood lymphocytes (PBLs); experiment: Anti-HIV-1 antiviral activity in acutely infected peripheral blood lymphocytes (CPE and RT activity); type: cell-based, Human Immunodeficiency Virus type 1 (HIV); human cells; details: for IC100: Human immunodeficiency virus 1, 144 h, PBL cells, acute HIV-1 infection, day 6, concentration at which virus replication is inhibited (CPE negative or trace, >95% inhibition of RT activity); for antiviral index (Al), PBL cells: only non-toxic concentrations used, 8640 min
Excerpt: as §1, §2, §3, §4, §5, §6, §7, §8, §9, §10, §11

## CC(C)[C@H](NC(=O)OCc1ccccn1)C(=O)N[C@@H](Cc1ccccc1)C(O)CN1C2CCC(C2)N1C(=O)OC(C)(C)C (stereo partly drawn) [Compound 10, 2-t-Butoxycarbonyl-3-[(2RS, 3S)-2-hydroxy-3-[N-(2-pyridyl)-methoxycarbonyl-L-valyl]amino-4-phenylbutyl]-2,3-diaza-bicyclo[2.2.1]-heptane]
HIV-1 protease
  IC50: 3300 ± 650 nM
[1]
  IC100: 25 µM
  antiviral index (Al), MT2 cells: 1

## CC(C)N(C[C@H](O)[C@H](Cc1ccccc1)NC(=O)[C@H](CC(N)=O)NC(=O)c1ccc2ccccc2n1)NC(=O)C(C)(C)C [Compound 13, 1-Trimethylacetyl-2-[(2S,3S)-2-hydroxy-3-(N-quinaldyl-L-asparaginyl)amino-4-phenylbutyl]-2-isopropylhydrazine]
[1]
  IC100: 1 µM
  antiviral index (Al), MT2 cells: 50
[2]
  IC100: 1 µM
  antiviral index (Al), PBL cells: > 50

## CC(C)(C)OC(=O)NN(Cc1ccccc1)C[C@H](O)[C@H](Cc1ccccc1)NC(=O)[C@H](CC(N)=O)NC(=O)c1ccc2ccccc2n1 [Compound 16, t-Butyl 3-benzyl-3-[(2S,3S)-2-hydroxy-3-(N-quinaldyl-L-asparaginyl)amino-4-phenylbuty]carbazate]
[1]
  IC100: 1 µM
  antiviral index (Al), MT2 cells: 100
[2]
  IC100: 1 µM
  antiviral index (Al), PBL cells: 1

## CC(C)(C)OC(=O)N1CC2CCCCC2CN1CC(O)[C@H](Cc1ccccc1)NC(=O)[C@H](CCC(N)=O)NC(=O)c1ccc2ccccc2n1 (stereo partly drawn) [Compound 4, cis-1,6-3-t-Butoxycarbonyl-4-[(2RS,3S)-2-hydroxy-3-(N-quinaldyl-L-glutaminyl)amino-4-phenylbutyl]-3,4-diaza-bicyclo[4.4.0]decane]
[1]
  IC100: 1 µM
  antiviral index (Al), MT2 cells: 10
[2]
  IC100: 1 µM
  antiviral index (Al), PBL cells: 10

## CC(C)(C)OC(=O)N1CCCCN1C[C@H](O)[C@H](Cc1ccccc1)NC(=O)[C@H](CC(N)=O)NC(=O)c1ccc2ccccc2n1 [Compound 19, 1-t-Butyloxycarbonyl-2-[(2S,3S)-2-hydroxy-3-(N-quinaldyl-L-asparaginyl)amino-4-phenylbutyl]hexahydropyridazine]
[1]
  IC100: 1 µM
  antiviral index (Al), MT2 cells: 10
[2]
  IC100: 0.1 µM
  antiviral index (Al), PBL cells: 200

## CC(C)[C@H](NC(=O)c1ccc2ccccc2n1)C(=O)N[C@@H](Cc1ccccc1)[C@H](O)CN(NC(=O)OC(C)(C)C)C(C)C [Compound 9, t-Butyl 3-Isopropyl-3-[(2R,3S)-2-hydroxy-3-(N-quinaldyl-L-valyl)amino-4-phenylbutyl]carbazate]
[1]
  IC100: 5 µM
  antiviral index (Al), MT2 cells: 4

## CC(C)N(C[C@H](O)[C@H](Cc1ccccc1)NC(=O)[C@H](CC(N)=O)NC(=O)c1ccccc1)NC(=O)OC(C)(C)C [Compound 18, t-Butyl 3-isopropyl-3-[(2S,3S)-2-hydroxy-3-(N-benzoyl-L-asparaginyl)amino-4-phenylbutyl]carbazate]
[1]
  IC100: 1 µM
  antiviral index (Al), MT2 cells: 10
[2]
  IC100: 1 µM
  antiviral index (Al), PBL cells: > 150

## CC(C)(C)OC(=O)N1Cc2ccccc2CN1CC(O)[C@H](Cc1ccccc1)NC(=O)[C@H](CC(N)=O)NC(=O)c1ccc2ccccc2n1 (stereo partly drawn) [Compound 11, 2-t-Butoxycarbonyl-3-[(2RS, 3S)-2-hydroxy-3-(N-quinaldyl-L-asparaginyl)amino-4-phenylbutyl]-1,2,3,4-tetrahydrophthalazine]
HIV-1 protease
  IC50: 12.5 ± 3.2 nM
[1]
  IC100: 1 µM
  antiviral index (Al), MT2 cells: > 10

## CC(CCc1ccccc1)N(C[C@@H](O)[C@H](Cc1ccccc1)NC(=O)[C@H](CC(N)=O)NC(=O)c1ccc2ccccc2n1)NC(=O)OC(C)(C)C (stereo partly shown) [Compound 12]
[1]
  IC80: 1000 nM
  antiviral index (Al), MT2 cells: 10

## C[C@@H](O)[C@H](NC(=O)c1ccc2ccccc2n1)C(=O)N[C@@H](Cc1ccccc1)C(O)CN1CC2CCCCC2CN1C(=O)OC(C)(C)C (stereo partly drawn) [Compound 5, cis-1,6-3-t-Butoxycarbonyl-4-[(2RS,3S)-2-hydroxy-3-(N-quinaldyl-L-threonyl)amino-4-phenylbutyl]-3,4-diaza-bicyclo[4.4.0]decane]
[1]
  IC100: 1 µM
  antiviral index (Al), MT2 cells: < 10
[2]
  IC100: 1 µM
  antiviral index (Al), PBL cells: < 10

## CC(C)(C)OC(=O)N1CC2CCCCC2CN1C[C@H](O)[C@H](Cc1ccccc1)NC(=O)[C@H](CC#N)NC(=O)c1ccc2ccccc2n1 (stereo partly drawn) [Compound 20, cis-1,6-3-t-Butoxycarbonyl-4-[(2S,3S)-2-hydroxy-3-(N-quinaldyl-3-cyano-L-alanyl)amimo-4-phenylbutyl]-3,4-diaza-bicyclo[4.4.0]decane]
[1]
  IC100: 1 µM
  antiviral index (Al), MT2 cells: 10
[2]
  IC100: 1 µM
  antiviral index (Al), PBL cells: 10

## CC(C)(C)OC(=O)N1CC2CCCCC2CN1C[C@H](O)[C@H](Cc1ccccc1)NC(=O)[C@H](CC(N)=O)NC(=O)c1ccc2ccccc2n1 (single isomer, unassigned) [Compound 2b.A]
[1]
  IC80: 10 nM
  antiviral index (Al), MT2 cells: 100
[2]
  IC100: 0.01 µM
  antiviral index (Al), PBL cells: 1000

## CC(C)N(C[C@H](O)[C@H](Cc1ccccc1)NC(=O)[C@H](CC(N)=O)NC(=O)c1ccc2ccccc2n1)NC(=O)NC(C)(C)C [Compound 14, 1-(t-Butylamino)carbonyl-2-[(2S,3S)-2-hydroxy-3-(N-quinaldyl-L-asparaginyl)amino-4-phenylbutyl]-2-isopropylhydrazine]
[1]
  IC100: 1 µM
  antiviral index (Al), MT2 cells: 50
[2]
  IC100: 1 µM
  antiviral index (Al), PBL cells: > 50

## CC(C)(C)OC(=O)N1CC2CCCCC2CN1CC(O)[C@H](Cc1ccccc1)NC(=O)OCc1ccccc1 (stereo partly drawn) [Compound 1, cis-1,6-3-t-Butoxycarbonyl-4-[(2RS,3S)-2-hydroxy-3-(phenylmethoxycarbonyl)amino-4-phenylbutyl]-3,4-diaza-bicyclo-[4.4.0]decane]
[1]; Human immunodeficiency virus 1, printed in the IC100 column with footnote (a) IC50
  IC50: 10 µM
[1]
  antiviral index (Al), MT2 cells: 1

## CC(C)N(C[C@H](O)[C@H](Cc1ccccc1)NC(=O)[C@H](CC(N)=O)NC(=O)c1ccccn1)NC(=O)OC(C)(C)C [Compound 15, t-Butyl 3-isopropyl-3-[(2S,3S)-2-hydroxy-3-(N-picolinyl-L-asparaginyl)amino-4-phenylbutyl]carbazate]
[1]
  IC100: 1 µM
  antiviral index (Al), MT2 cells: 100
[2]
  IC100: 1 µM
  antiviral index (Al), PBL cells: 200

## CC(C)(C)OC(=O)N1CC2CCCCC2CN1C[C@H](O)[C@H](Cc1ccccc1)NC(=O)[C@H](CC(N)=O)NC(=O)c1ccc2ccccc2n1 (stereo partly drawn) [Compound 2b, cis-1,6-3-t-Butoxycarbonyl-4-[(2S, 3S)-2-hydroxy-3-(N-quinaldyl-L-asparaginyl)amino-4-phenylbutyl]-3,4-diaza-bicyclo[4.4.0]decane]
[1]
  IC100: 0.1 µM
  antiviral index (Al), MT2 cells: 50
[2]
  IC100: 0.1 µM
  antiviral index (Al), PBL cells: 100

## CC(C)[C@H](NC(=O)OCc1ccccn1)C(=O)N[C@@H](Cc1ccccc1)C(O)CN1CC2CCCCC2CN1C(=O)OC(C)(C)C (stereo partly drawn) [Compound 6, cis-1,6-3-t-Butoxycarbonyl-4-[(2RS,3S)-2-hydroxy-3-[N-(2-pyridyl)methoxycarbonyl-L-valyl]amino-4-phenylbutyl]-3,4-diaza-bicyclo[4.4.0]decane]
[1]
  IC100: 1 µM
  antiviral index (Al), MT2 cells: < 5
[2]
  IC100: 1 µM
  antiviral index (Al), PBL cells: < 5

## CC(C)[C@H](NC(=O)c1ccc2ccccc2n1)C(=O)N[C@@H](Cc1ccccc1)C(O)CN1CC2CCCCC2CN1C(=O)OC(C)(C)C (stereo partly shown) [Compound 3]
[1]
  IC100: 1 µM
  antiviral index (Al), MT2 cells: 5
[2]
  IC100: 1 µM
  antiviral index (Al), PBL cells: 5
